In patent US11793770B2, “7-OH-cannabidiol (7-OH-CBD) and/or 7-OH-cannabidivarin (7-OH-CBDV) for use in the treatment of epilepsy” (GW Research Limited, priority 2014, dated 2023):
Marks after values point to notes of the source that are not given here.

Tests used:
PTZ-induced seizures = assay: PTZ model of generalised (acute) seizures; format: in vivo, rat; details: for Mortality / Latency to seizure onset / Maximum observed seizure severity (median): CBD and 7-OH CBD 100 mg/kg; for Mortality: FIG. 1B; for Anti-convulsant action in the PTZ model of acute seizure: 7-OH-CBDV 200 mg/kg, 7-OH-CBD 100 mg/kg IP; for Latency to seizure onset: FIG. 1D; for Potency compared with parent cannabinoid: metabolite vs parent (CBD, CBDV) at the same dose; for Maximum observed seizure severity (median): IP 30 min before PTZ 70 or 80 mg/kg IP, score scale 0-6, FIG. 1A
Procedure: Male Wistar rats (P24-29; 75-110 g) were used to assess the effects of the cannabinoids listed above on the PTZ model of generalised seizures. Animals were habituated to the test environment, cages, injection protocol and handling prior to experimentation. Animals were housed in a room at 21° C. on a 12 hour light: dark cycle (lights on 0900) in 50% humidity, with free access to food and water.
Five 6 L Perspex (RTM) tanks with lids were placed on a single bench with dividers between them. Closed-circuit television (CCTV) cameras were mounted onto the dividers to observe rat behaviour. Sony Topica CCD cameras (Bluecherry, USA) were linked via BNC cables to a low-noise PC via Brooktree digital capture cards (Bluecherry, USA). Zoneminder (http://www.zoneminder.com) software was used to monitor rats, start and end recordings and manage video files. In-house Linux (RTM) scripts were used to encode video files into a suitable format for further offline analysis
Animals were filmed for half an hour after last sign of seizure, and then returned to their cage.
Animals were observed during experimental procedures, but all analysis was performed offline on recorded video files using The Observer behavioural analysis software (Noldus, Netherlands). A seizure severity scoring system was used to determine the levels of seizure experienced by subjects (Table 1). All signs of seizure were detailed for all animals.
The latency (in seconds) from injection of PTZ to first myoclonic jerk (FMJ; score of 1), and to the animal attaining “forelimb clonus with tonic component and body twist” (score of 3.5) were recorded. […] Data are presented as the mean±S.E.M. within an experimental group.
This is given as the median value for each experimental group based on the scoring scale above.
The percentage of animals within an experimental group that died as a result of PTZ-induced seizures. A score of 6 (death) automatically denotes that the animal also experienced tonic-clonic seizures.
This is given as the mean±S.E.M. for each experimental group.
Differences in latencies and durations were assessed by one-way analysis of variance (ANOVA) with post-hoc Tukey's test. P≤0.05 was considered significant.

[1] = test system: seizures in epileptic patients; details: cited from earlier work
[2] = test system: seizures after pro-convulsant drugs or an electric current; details: mice, after pro-convulsant drugs or an electric current (Consroe et al., 1982); cited from earlier work
[3] = WO 01/95899; cited from earlier work
[4] = test system: Maximal electroshock seizures (MES); assay: Maximal electroshock (MES) model of seizure; format: in vivo, mouse
Procedure: The vehicle used in this study was 2:1:17 (ethanol:Cremophor:0.9% w/v NaCl). […] This was made to a solution at the highest concentration; then dissolved in ethanol before combination with Cremophor and 0.9% NaCl in the proportion described above. The 7-OH-CBDV was administered intraperitoneally at a volume of 10 ml/kg body weight.
Animal Species/Strain: Mouse/ICR, Microbiological grade: SPF, Inc. Sex: male, Age (at time of testing): 5-7 weeks old, Number of animals: about 5 animals per group. Temperature: 23±2° C., Humidity: 60±10%, Light conditions: 7 AM to 7 PM for the light period, 7 PM to 7 AM for the dark period. Chow and water: Free access to CRF-1 (Oriental Yeast Co, Ltd) and tap water.
One day before each experiment, mice were weighed and randomized into several groups in each test. On the morning of the experiment day, body weight was measured in order to calculate the administration volume of each animal. Vehicle, 7-OH-CBDV or CBDV was interperitoneally administered 30 minutes before electric stimuli. […]
All statistical analyses were performed using SAS Software for Windows, Release 9.1. The difference of the number (hindlimb extension or deaths) in each group was assessed using two-tailed Fisher's exact test. […]

[5] = IP 30 min before PTZ, CBDV and 7-OH CBDV 200 mg/kg, n=11
[6] = CBDV and 7-OH CBDV 200 mg/kg, n=11

For C=C(C)[C@@H]1CCC(C)=C[C@H]1c1c(O)cc(CCCCC)cc1O [CBD, Cannabidiol], the Mortality (PTZ-induced seizures; [5]) is given as “reduction in mortality”, the “Patients becoming seizure free” value ([1]; 200 mg/day pure CBD, four adult patients (Mechoulam and Carlini, 1978)) is given as “two of the four patients became seizure free” and the Control of seizures ([1]; 200 mg/day pure CBD, open label, twelve institutionalized adult patients (Ames and Cridland, 1986)) is given as “ineffective in controlling seizures”. For the same compound, the “Number of patients with marked reduction of seizures” value ([1]; eight adult patients with generalized epilepsy (Cunha et al., 1980)) was 4, the “Epileptic patients describing an improvement in their condition” value ([1]; eight epileptic patients (Carlini et al., 1981)) was “Seven out of the eight” and the Prevention of seizures [2] was “able to prevent seizures”.
In the case of C=C(C)[C@@H]1CCC(CO)=C[C@H]1c1c(O)cc(CCCCC)cc1O [7-OH-CBD, 7-hydroxy-cannabidiol], the “Efficacy in a model of inflammation” value [3] is given as “found to be effective”, the “Anti-convulsant action in the PTZ model of acute seizure” value (PTZ-induced seizures) is given as “show anti-convulsant action” and the Mortality (PTZ-induced seizures; [5]) is given as “reduction in mortality”. The “Latency to seizure onset” value (PTZ-induced seizures; [5]) was “significantly reduce the latency to onset of seizures”, the “Latency to seizure onset” value (PTZ-induced seizures; IP 30 min before PTZ, CBDV and 7-OH CBDV 200 mg/kg, n=11, listed as 7-OH CBD) was “significantly reduced the latency to seizure onset” and the “Potency compared with parent cannabinoid” value (PTZ-induced seizures) was “more potent than their parent cannabinoids”.
With C=C(C)[C@@H]1CCC(C)=C[C@H]1c1c(O)cc(CCC)cc1O [CBDV, Cannabidivarin] the “Maximum observed seizure severity (median)” value (PTZ-induced seizures; [6]) was “significantly reduced seizure severity”, the Mortality (PTZ-induced seizures; [5]) was “significant effect on mortality” and the “Incidence of tonic clonic seizures” value (PTZ-induced seizures; IP 30 min before PTZ, CBDV and 7-OH CBDV 200 mg/kg, n=11, FIG. 1C) was “significantly reduced”. For the same compound, the “Percentage decrease in tonic clonic convulsions compared with vehicle” value ([4]; 200 mg/kg i.p., 30 minutes before electric stimuli, ICR mice) was 82% ***.
In the case of C=C(C)[C@@H]1CCC(CO)=C[C@H]1c1c(O)cc(CCC)cc1O [7-OH-CBDV, 7-hydroxy-cannabidivarin], the “Anti-convulsant action in the PTZ model of acute seizure” value (PTZ-induced seizures) is reported as “show anti-convulsant action”, the “Maximum observed seizure severity (median)” value (PTZ-induced seizures; [6]) is reported as 3 and the Mortality (PTZ-induced seizures; [5]) is reported as “significant effect on mortality”. The “Potency compared with parent cannabinoid” value (PTZ-induced seizures) was “more potent than their parent cannabinoids” and the “Anti-convulsant effects in the MES model” value ([4]; 150 and 200 mg/kg i.p.) was “anti-convulsant effects”.
